# Patent publication US20240325544A1, “CATIONIC LIPID FOR COVALENT MODIFICATION OF PEPTIDES” (PharmalN Corporation, priority 2023, published 2024)
# Marks after values point to notes of the source that are not given here. Bridge positions count the residues as written; N and C are the ends. Square brackets hold non-standard residues; d marks the D form. Peptide text beside a SMILES is read from it. * marks the point of attachment. C18 diacid = O=C(O)CCCCCCCCCCCCCCCCC(=O)*; Palmitoyl = CCCCCCCCCCCCCCCC(=O)*; Dab = NCC[C@H](N)C(=O)O; Dap = NC[C@H](N)C(=O)O; AEEA = NCCOCCOCC(=O)O
# Experiments:
# [1] = tested on: E0771 breast cancer cells; experiment: Orthotopic mouse model of breast cancer using E0771 cells (FIG. 6); format: in vivo, mice; conditions: 0.3 mg/kg (0.1 μmol/kg) SC once daily, 5 days on, 2 days off, 3 cycles
# Method: Error bars represent standard error of the mean. FIG. 6A) Tumor growth kinetics of 6-week-old female C57BL/6J mice (n=10 per group) that were inoculated with E0771 breast cancer cells (250,000 cells/mouse) in the mammary gland. Starting from Day 4 post-inoculation, cationic alkyl modified CNP derivatives (SEQ ID NO: 29, 30, and 31) were administered subcutaneously at a bolus dose of 0.3 mg/kg (0.1 μmol/kg) once daily for 5 days (5 days on, 2 days off) for 3 cycles; dose days indicated by gridlines. The control group, which received only buffer, was dosed in the same manner to establish the baseline tumor growth kinetics. […] Therefore, it can be concluded that the attachment of CNP is important for the observed anti-tumor activity. Statistical analysis was based on Dunnett's test performed by using GraphPad (n=10, 10, 10, and 10; Control, SEQ ID NO: 29, SEQ ID NO: 30, and SEQ ID NO: 31) **** P<0.0001 vs Control group.
# Therefore, it can be concluded that the attachment of CNP is essential for anti-tumor activity. […] Animal care and treatment: Female C57BL/6J mice (6 weeks-old) were purchased from Kyudo (Saga, Japan) and maintained under a 12-hour light/12-hour dark cycle with free access to water and standard mouse diet (MF diet, Oriental Yeast Co., Ltd. Tokyo, Japan or PicoLab Rodent Diet 20, LabDiet Corp., St. Louis, Missouri). Implantation and drug administration: Mice were implanted with E0771 breast cancer cells (250,000 cells/mouse; Cosmo Bio Tokyo, Japan) in their left mammary gland and were randomized into groups of n=10. Starting from Day 4 post-inoculation, cationic alkyl modified CNP derivatives (SEQ ID NOs: 29, 30, and 31) were administered subcutaneously at a bolus dose of 0.3 mg/kg (0.1 μmol/kg; with a dose volume of 10 mL/kg) in sterile water for injection (Otsuka Pharmaceutical, Tokushima, Japan) once daily for 5 days (5 days on, 2 days off) for 3 cycles. The control group, which received only buffer, was dosed in the same manner to establish the baseline tumor growth kinetics. Tumor sizes were measured using calipers. Statistical analysis was based on Dunnett's test performed by using GraphPad (n=10, 10, 10, and 10; Control, SEQ ID NO: 29, SEQ ID NO: 30, and SEQ ID NO: 31) **** P<0.0001 vs Control group.
# [2] = Clinically observable adverse effects of cationic alkyl moieties after subcutaneous bolus in rats (Table 1); format: in vivo, rat; conditions: male, Sprague-Dawley, rat, in vivo, sc, tested at 3.0, 5.0 or 10 μmol/kg, lethargy is considered maximum tolerated bolus dose, read-out: Lethargy* in n = 3
# Method: (§1) Drug administration and observation: Each rat received a subcutaneous injection of a cationic alkyl modifier (SEQ ID NO: 1-22; listed in Table 1 below) in a buffer of sterile water adjusted to a pH between 4.5-5, with an initial bolus dose of 5.0 μmol/kg and an injection volume of 1.0 mL/kg. The bolus dose level was adjusted based on observations, and animals were monitored closely for lethargy, ataxia, swelling, or discoloration during the first 4 hours post-injection and hourly thereafter. As used herein, “ataxia” means a clinical sign observed as poor muscle control that causes clumsy voluntary movements. It may cause difficulty with mobility, coordination, and eye movements. As used herein, “lethargy” means a clinical sign observed as inability or unwillingness to resume normal activity characterized by exploring and alertness. Lethargic rats are easily observed by displaying little to no activity and/or unwillingness to explore around, half closed eyes, and hunched posture. As used herein, “swelling” means a clinical sign observed as the enlargement or engorgement of body parts with blood or fluid and is associated with visible redness (discoloration). If no swelling occurred, dose level was increased to 10 μmol/kg; if swelling was present, bolus dose level was decreased to 3.0 μmol/kg. A wash-out period of 1 week was allowed between bolus doses, and animals were humanely euthanized through CO2 asphyxiation after final observation.
# Sprague Dawley rats [3] = experiment: as above; format: in vivo, rat; conditions: tested at 3.0, 5.0 or 10 μmol/kg; for Ataxia** in n = 3: ataxia is bolus dose limiting toxicity; for Swelling and/or Discoloration in n = 3: dose at which sign was seen
# Method: as §1
# [4] = Plasma concentration of respective natriuretic peptide by ELISA after SC bolus in CD-1 mice (pharmacokinetics, Table 3); conditions: male, CD-1, mouse, in vivo, sc, 1 mg/kg
# Method: The test articles were formulated or dissolved in sterile water for injection on the same day of administration. […] Blood samples were collected via retro-orbital bleed at 2- and 6-hours post-injection, with two bleedings per animal at two different timepoints. The samples were collected in K2EDTA tubes, processed by centrifugation (2000×g; 15 m 4 eC within 30 minutes after collection), and the resulting plasma samples were stored at −80° C. Biochemical analysis: The plasma concentration of the respective natriuretic peptide was analyzed using commercially available ELISA kits from Phoenix Pharmaceuticals (Burlingame, CA): ANP ELISA (cat #EKE-005-06), BNP ELISA (cat #EKE-011-03), and CNP ELISA (cat #EKE-012-03). […] Plasma cGMP was analyzed using a commercially available kit from Abcam (ab133052, Waltham, MA).
# Sprague Dawley rats [5] = experiment: Dose-range finding of cationic alkyl modified CNP, subcutaneous bolus in rats (Table 2)
# Method: Animal care and treatment: Male Sprague Dawley rats aged 8 to 10 weeks (Charles River, Hollister, CA) were housed in groups of two (n=3/group) in disposable polypropylene cages with rodent cob bedding at the PharmaIN animal facility. Animals had ad libitum access to food (LabDiet Pico Rodent #5053; Animal Specialties, Woodburn, OR) and water. Temperature (68-74° F.) and humidity (30-60%) were maintained within a controlled range, and a 12-hour light/dark cycle was used. […] Animals were monitored closely during the first 4 hours following injection, then hourly throughout the rest of the day for any signs of swelling or discoloration (dilatory side effect), lethargy (side effect), ataxia (ataxia is used as a marker of toxicity). Rats were allowed a 1-week wash-out period between bolus doses. Following final observations, animals were humanely euthanized through CO2 asphyxiation.
# cGMP = experiment: Plasma cGMP after SC bolus of natriuretic peptides in CD-1 mice (pharmacodynamics, Table 3); format: in vivo; conditions: SC bolus 1.0 mg/kg (≤0.45 μmol/kg), baseline 10 +/−8 pmol/ml, n = 3-5
# Outline: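 Peptides given SC in sterile water; retro-orbital blood at 2 and 6 h post-dose (two bleeds per mouse), K2EDTA plasma. Plasma cGMP by commercial immunoassay kit; ANP, BNP or CNP plasma levels by peptide-specific ELISA.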
# [6] = tested on: inflammatory cytokines (MCP1, IL-6, TNFα) in BALF; experiment: LPS ALI model: inflammatory cytokines in BALF by ELISA (Table 4); format: in vivo, mice; conditions: LPS 0.05 mg/kg IT; SEQ 0.3 mg/kg SC, Sivelestat 150 mg/kg IP; 24 hours
# Method: Animal care and treatment: Male C57BL/6J mice (6 weeks-old) were purchased from Kyudo (Saga, Japan) and maintained under a 12-hour light/12-hour dark cycle with free access to water and standard mouse diet (MF diet, Oriental Yeast Co., Ltd. Tokyo, Japan). Drug administration: Mice were administered LPS (0.05 mg/kg IT; Sigma-Aldrich) followed by treatment with various test articles, including Sivelestat (150 mg/kg; Nipro, Osaka, Japan), an inhibitor of human neutrophil elastase, injected IP as a positive control, and cationic alkyl modified CNPs (SEQ ID NO: 31, 29, and 30; 0.3 mg/kg (0.1 μmol/kg) SC). The test articles were administered immediately after LPS injection. Additionally, a normal control (NC) group without LPS administration and a Control group receiving only LPS without any test article were included. After 24 hours, the mice were euthanized under isoflurane anesthesia and BALF was harvested. Biochemical analysis: ALI and ARDS are often characterized by increased levels of inflammatory cytokines, including Macrophage Chemoattractant Protein-1 (MCP1), Interleukin-6 (IL-6), and […] (TNFα), in BALF. Decreases in their concentration can indicate the resolution of ALI/ARDS. Concentration of each cytokine (MCP1, IL-6, and TNFα) was measured using an ELISA kit (R&D SYSTEMS, Minneapolis M N). […] Statistical analysis was based on Dunnett's test performed by using GraphPad. (n=5, 8, 8, 8, and 8; NC, Control, PC, SEQ ID NO: 31, SEQ ID NO: 29). *** P<0.001, ** P<0.01, * P<0.05 vs each corresponding Control group.
Structure (SMILES),MTD [2] [µmol/kg],Ataxia** in n = 3 (Sprague Dawley rats [3]) [µmol/kg],Swelling and/or Discoloration in n = 3 (Sprague Dawley rats [3]) [µmol/kg],further results
"CCCCCCCCCCCCCCCC(=O)NCCOCCOCC(=O)NCCOCCOCC(=O)NCCOCCOCC(=O)N[C@@H](CN)C(=O)N[C@@H](CN)C(=O)O [SEQ ID NO: 14, CH3(CH2)14(C═O)-Aeea-Aeea-Aeea-Dap-Dap] ({Palmitoyl-AEEA-AEEA-AEEA}-[Dap]-[Dap]-OH; C-terminus assumed)",> 10,>10,>10,Tumor volume compared to the Control group [1]: did not show a significant reduction in tumor volume
"CCCCCCCCCCCCCCCC(=O)NCCOCCOCC(=O)NCCOCCOCC(=O)NCCOCCOCC(=O)N[C@@H](CCN)C(=O)N[C@@H](CN)C(=O)O [SEQ ID NO: 17, CH3(CH2)14(C═O)-Aeea-Aeea-Aeea-Dab-Dap] ({Palmitoyl-AEEA-AEEA-AEEA}-[Dab]-[Dap]-OH; C-terminus assumed)",> 10,>10,>10,–
"NCC[C@H](NC(=O)[C@H](CCN)NC(=O)COCCOCCNC(=O)COCCOCCNC(=O)COCCOCCNC(=O)CCCCCCCCCCCCCCCCC(=O)O)C(=O)O [SEQ ID NO: 18, (HOOC)(CH2)16(C═O)-Aeea-Aeea-Aeea-Dab-Dab] ({C18 diacid-AEEA-AEEA-AEEA}-[Dab]-[Dab]-OH; C-terminus assumed)",> 10,>10,>10,–
"CCCCCCCCCCCCCCCC(=O)NCCOCCOCC(=O)NCCOCCOCC(=O)NCCOCCOCC(=O)N[C@@H](CN)C(=O)N[C@@H](CN)C(=O)N[C@@H](CN)C(=O)O [SEQ ID NO: 19, CH3(CH2)14(C═O)-Aeea-Aeea-Aeea-Dap-Dap-Dap] ({Palmitoyl-AEEA-AEEA-AEEA}-[Dap]-[Dap]-[Dap]-OH; C-terminus assumed)",> 10,>10,>10,–
"NC[C@H](NC(=O)[C@H](CN)NC(=O)COCCOCCNC(=O)COCCOCCNC(=O)COCCOCCNC(=O)CCCCCCCCCCCCCCCCC(=O)O)C(=O)O [SEQ ID NO: 20, (HOOC)(CH2)16(C═O)-Aeea-Aeea-Aeea-Dap-Dap] ({C18 diacid-AEEA-AEEA-AEEA}-[Dap]-[Dap]-OH; C-terminus assumed)",> 10,>10,>10,–
"NCC[C@H](NC(=O)[C@H](CCN)NC(=O)COCCOCCNC(=O)COCCOCCNC(=O)CCCCCCCCCCCCCCCCC(=O)O)C(=O)O [SEQ ID NO: 21, (HOOC)(CH2)16(C═O)-Aeea-Aeea-Dab-Dab] ({C18 diacid-AEEA-AEEA}-[Dab]-[Dab]-OH; C-terminus assumed)",> 10,>10,>10,–
"CCCCCCCCCCCCCCCC(=O)NCCOCCOCC(=O)NCCOCCOCC(=O)NCCOCCOCC(=O)N[C@@H](CN)C(=O)N[C@@H](CN)C(=O)N[C@@H](CN)C(=O)N[C@@H](CN)C(=O)O [SEQ ID NO: 22, CH3(CH2)14(C═O)-Aeea-Aeea-Aeea-Dap-Dap-Dap-Dap] ({Palmitoyl-AEEA-AEEA-AEEA}-[Dap][Dap][Dap][Dap]-OH; C-terminus assumed)",> 10,>10,>10,–
CCCCCCCCCCCCCCCC(=O)N[C@@H](Cc1ccc(O)cc1)C(=O)N[C@@H](CCC(=O)O)C(=O)NCCOCCOCC(=O)NCCOCCOCC(=O)N[C@@H](CCN)C(=O)N[C@@H](CCN)C(=O)NCC(=O)N[C@@H](CC(C)C)C(=O)N[C@@H](CO)C(=O)N[C@@H](CCCCN)C(=O)NCC(=O)N[C@H]1CSSC[C@@H](C(=O)O)NC(=O)CNC(=O)[C@H](CC(C)C)NC(=O)CNC(=O)[C@H](CO)NC(=O)[C@H](CCC(N)=O)NC(=O)[C@H](CO)NC(=O)CNC(=O)[C@H]([C@@H](C)CC)NC(=O)[C@H](CCCNC(=N)N)NC(=O)[C@H](CC(=O)O)NC(=O)[C@H](CC(C)C)NC(=O)[C@H](CCCCN)NC(=O)[C@H](CC(C)C)NC(=O)CNC(=O)[C@H](Cc2ccccc2)NC1=O [SEQ ID NO: 30] (Palmitoyl-YE[AEEA][AEEA][Dab][Dab]GLSKGCFGLKLDRIGSQSGLGC-OH; disulfide 12-28; C-terminus assumed),–,–,–,"level at 2 h [4]: 12.6 ng/mL; level at 6 h [4]: 1.9 ng/mL; Ataxia** in n = 3 (Sprague Dawley rats [5]; up to 10 mg/kg): >10 mg/kg; Lethargy* in n = 3 (Sprague Dawley rats [5]; up to 10 mg/kg): ≥10 mg/kg; Swelling and/or Discoloration in n = 3 (Sprague Dawley rats [5]; up to 10 mg/kg): >10 mg/kg; Ataxia** in n = 3 (Sprague Dawley rats [5]; value in parentheses): (3.3) μmol/kg; Lethargy* in n = 3 (Sprague Dawley rats [5]; value in parentheses): (3.3) μmol/kg; Swelling and/or Discoloration in n = 3 (Sprague Dawley rats [5]; value in parentheses): (3.3) μmol/kg; Tumor volume compared to the Control group [1]: significant decrease in tumor volume; Plasma concentration of cGMP, 2 hr (cGMP; 2 hr): 217.30** pmol/mL; Plasma concentration of cGMP, 6 hr (cGMP; 6 hr): 83.85* pmol/mL"
"CC(C)(C)C(=O)Oc1ccc(S(=O)(=O)Nc2ccccc2C(=O)NCC(=O)O)cc1 [Sivelestat, reference compound]",–,–,–,IL-6 in BALF [6]: 69 % Of Control; MCP1 in BALF [6]: 63 % Of Control; TNFα in BALF [6]: 63 % Of Control
